Assay results: the supplement of paper PMC10307832

What was measured:
Experiment in all cases: relative viability (nuclei count vs DMSO), 5 days (fraction); higher = more cells survive
[1] = compound: CN1C=C(C2=CC=CC=C21)/C=C\3/C4=C(C=CC=N4)NC3=O + Cc1nc(NC(=O)N2CCC[C@H]2C(N)=O)sc1-c1ccnc(C(C)(C)C(F)(F)F)c1 [Alpelisib] (partner 2 µM)
How it was run: (§1)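 Lung cancer cell lines were pin-tool dosed in 1536-well plates on the day after seeding, with either a lone drug or a fixed anchor-drug dose plus five library-drug doses (not always all listed) in √10 steps. Nuclei were counted on 4× images after 5 days. Relative viability is the ratio of treated-well to vehicle-well nuclei counts, with each value a median of duplicate plates.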

[2] = compound: CN1C=C(C2=CC=CC=C21)/C=C\3/C4=C(C=CC=N4)NC3=O + CS(=O)(=O)N1CCN(Cc2cc3nc(-c4cccc5[nH]ncc45)nc(N4CCOCC4)c3s2)CC1 [Pictilisib] (partner 1 µM)
How it was run: as §1

[3] = compound: CN1C=C(C2=CC=CC=C21)/C=C\3/C4=C(C=CC=N4)NC3=O + COc1cccc2cc(-c3nc([C@H]4CC[C@H](C(=O)O)CC4)n4ncnc(N)c34)[nH]c12 [OSI-027] (partner 0.5 µM)
How it was run: as §1

[4] = compound: CN1C=C(C2=CC=CC=C21)/C=C\3/C4=C(C=CC=N4)NC3=O + CC(=O)Nc1cccc(-n2c(=O)n(C3CC3)c(=O)c3c(Nc4ccc(I)cc4F)n(C)c(=O)c(C)c32)c1 [Trametinib] (partner 0.02 µM)
How it was run: as §1

| Cell Line | relative viability ([1]; first compound 0.02 µM) | relative viability ([1]; first compound 0.06325 µM) | relative viability ([1]; first compound 0.2 µM) | relative viability ([1]; first compound 0.6325 µM) | relative viability ([1]; first compound 2 µM) | relative viability ([2]; first compound 0.02 µM) | relative viability ([2]; first compound 0.06325 µM) | relative viability ([2]; first compound 0.2 µM) | relative viability ([2]; first compound 0.6325 µM) | relative viability ([2]; first compound 2 µM) | relative viability ([3]; first compound 0.02 µM) | relative viability ([3]; first compound 0.06325 µM) | relative viability ([3]; first compound 0.2 µM) | relative viability ([3]; first compound 0.6325 µM) | relative viability ([3]; first compound 2 µM) | relative viability ([4]; first compound 0.02 µM) | relative viability ([4]; first compound 0.06325 µM) | relative viability ([4]; first compound 0.2 µM) | relative viability ([4]; first compound 0.6325 µM) | relative viability ([4]; first compound 2 µM) |
| --- | --- | --- | --- | --- | --- | --- | --- | --- | --- | --- | --- | --- | --- | --- | --- | --- | --- | --- | --- | --- |
| EMC-BAC-2 | 0.673 | 0.452 | 0.736 | 0.768 | 0.799 | 0.499 | 0.521 | 0.524 | 0.521 | 0.554 | 0.388 | 0.384 | 0.391 | 0.405 | 0.362 | 0.926 | 0.872 | 0.892 | 0.927 | 0.956 |
| EPLC-272H | 1.14 | 0.752 | – | 0.83 | 0.835 | 0.294 | 0.285 | – | 0.27 | 0.304 | 0.219 | 0.29 | 0.269 | – | 0.309 | 0.348 | 0.263 | – | 0.283 | 0.267 |
| H3255 | 0.705 | 0.722 | 0.642 | 0.757 | 0.855 | 0.41 | 0.453 | 0.395 | 0.501 | 0.475 | 0.676 | 0.627 | 0.532 | 0.621 | 0.53 | 0.726 | – | 0.57 | 0.775 | 0.668 |
| HARA | 0.677 | 0.812 | 0.783 | 0.63 | 0.734 | 0.55 | 0.391 | 0.407 | 0.254 | 0.379 | 0.539 | 0.449 | – | 0.505 | 0.586 | 0.673 | 0.635 | – | 0.605 | 0.492 |
| HCC-15 | 1.01 | 0.848 | 0.808 | 0.889 | 0.958 | 0.717 | 0.639 | 0.775 | 0.666 | 0.771 | 0.656 | 0.568 | 0.582 | 0.651 | 0.552 | 0.411 | 0.392 | 0.403 | 0.377 | 0.367 |
| HCC-44 | 0.737 | 0.74 | 0.722 | 0.564 | 0.705 | 0.47 | 0.558 | 0.475 | 0.564 | 0.485 | 0.478 | 0.486 | – | 0.455 | 0.457 | 1.08 | 1.12 | 0.968 | 1.04 | 0.884 |
| HCC-78 | 0.289 | 0.509 | 0.304 | 0.282 | 0.287 | 0.199 | 0.183 | 0.206 | 0.178 | 0.171 | 0.368 | 0.335 | – | 0.392 | 0.35 | 0.522 | 0.675 | 0.706 | 0.553 | 0.694 |
| HCC-366 | 0.296 | 0.328 | 0.284 | 0.31 | 0.267 | 0.114 | 0.121 | 0.118 | 0.113 | 0.104 | 0.678 | 0.89 | 0.52 | 0.852 | 0.75 | 0.279 | 0.316 | 0.307 | 0.291 | 0.318 |
| HCC-827 | 0.969 | 0.992 | – | 0.978 | 0.984 | 1.07 | 0.996 | – | 0.772 | 1 | 0.771 | 0.662 | – | 0.804 | 0.721 | 0.509 | 0.528 | – | 0.571 | 0.566 |
| HOP-62 | 0.821 | 0.843 | 0.957 | 0.926 | 1.07 | 0.729 | 1.05 | 0.475 | 0.627 | 0.937 | 0.712 | 0.873 | 0.645 | 0.875 | 0.846 | 0.424 | 0.415 | – | 0.354 | 0.325 |
| LC-2-ad | 0.93 | 0.891 | 0.859 | 0.892 | 0.891 | 0.356 | 0.475 | 0.434 | 0.446 | 0.401 | 0.81 | 0.811 | 0.687 | 0.803 | 0.724 | 0.98 | 0.865 | 0.967 | 0.953 | 0.87 |
| LCLC-97TM1 | 0.205 | – | – | 0.208 | 0.202 | 0.159 | – | – | 0.216 | 0.131 | 0.372 | 0.447 | 0.542 | 0.476 | 0.482 | – | 0.19 | 0.189 | 0.198 | 0.19 |
| LCLC-103H | 1.05 | 1.02 | 0.937 | 0.941 | 0.924 | 0.721 | 0.672 | 0.553 | 0.53 | 0.584 | 0.402 | 0.416 | 0.494 | 0.509 | 0.461 | 0.645 | 0.691 | 0.718 | 0.667 | 0.681 |
| LK-2 | – | 0.766 | 0.76 | 0.943 | 0.61 | – | 0.364 | 0.458 | 0.453 | 0.557 | – | – | 0.184 | 0.195 | 0.211 | – | 0.683 | 0.743 | 0.701 | 0.794 |
| LOU-NH91 | 0.658 | 0.698 | 0.598 | 0.698 | 0.69 | 0.466 | 0.455 | 0.481 | 0.498 | 0.491 | 0.728 | 0.688 | 0.696 | 0.63 | 0.7 | 0.749 | 0.751 | 0.746 | 0.678 | 0.74 |
| LU99A | 0.479 | 0.487 | 0.555 | 0.5 | 0.504 | 0.344 | 0.282 | 0.338 | 0.316 | 0.315 | 0.298 | 0.303 | 0.282 | 0.255 | 0.299 | 0.554 | 0.504 | 0.494 | 0.588 | 0.597 |
| LXF-289 | 1.09 | 1.06 | 1.12 | 1.02 | 1.1 | 0.811 | 0.764 | 0.793 | 0.77 | 0.806 | 0.857 | 0.763 | 0.715 | 0.731 | 0.745 | 0.677 | 0.679 | 0.739 | 0.717 | 0.72 |
